Results from publication PMC5840146, “Structure-Activity Relationship Analysis of 3-Phenylcoumarin-Based Monoamine Oxidase B Inhibitors” (Frontiers in Chemistry, 2018).

Assays:
MAO-B [1] = target: T1, MAO-B (Homo sapiens, UniProt P27338); details: 2012b, cited from earlier work
T1 construct: purchased Sigma-Aldrich
T1 sequence (P27338 1-520): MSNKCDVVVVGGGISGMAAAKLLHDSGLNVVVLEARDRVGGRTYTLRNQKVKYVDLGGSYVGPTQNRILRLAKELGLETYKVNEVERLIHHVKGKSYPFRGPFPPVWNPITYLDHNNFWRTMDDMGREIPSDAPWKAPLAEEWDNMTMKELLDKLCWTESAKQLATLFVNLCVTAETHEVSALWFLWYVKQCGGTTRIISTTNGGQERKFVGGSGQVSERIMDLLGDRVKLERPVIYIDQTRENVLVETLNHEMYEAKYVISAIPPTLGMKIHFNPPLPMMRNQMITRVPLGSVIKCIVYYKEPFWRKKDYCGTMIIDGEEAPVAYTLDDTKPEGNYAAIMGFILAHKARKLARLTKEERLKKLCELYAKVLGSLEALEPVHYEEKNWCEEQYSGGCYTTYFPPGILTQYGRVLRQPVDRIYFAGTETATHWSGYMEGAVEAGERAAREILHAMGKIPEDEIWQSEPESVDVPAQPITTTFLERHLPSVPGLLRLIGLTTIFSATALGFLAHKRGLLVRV

MAO-B [2] = target: T1, MAO-B; experiment: MAO-B inhibition of prior 3-phenylcoumarins (literature data); type: biochemical; details: LiPE = pIC50 - QPlogPo/w, literature IC50
MAO-A = target: T2, MAO-A (Homo sapiens, UniProt P21397); experiment: continuous spectrophotometric MAO-A inhibition assay; type: biochemical; details: 100 µM, 1h
T2 construct: purchased Sigma-Aldrich
T2 sequence (P21397 1-527): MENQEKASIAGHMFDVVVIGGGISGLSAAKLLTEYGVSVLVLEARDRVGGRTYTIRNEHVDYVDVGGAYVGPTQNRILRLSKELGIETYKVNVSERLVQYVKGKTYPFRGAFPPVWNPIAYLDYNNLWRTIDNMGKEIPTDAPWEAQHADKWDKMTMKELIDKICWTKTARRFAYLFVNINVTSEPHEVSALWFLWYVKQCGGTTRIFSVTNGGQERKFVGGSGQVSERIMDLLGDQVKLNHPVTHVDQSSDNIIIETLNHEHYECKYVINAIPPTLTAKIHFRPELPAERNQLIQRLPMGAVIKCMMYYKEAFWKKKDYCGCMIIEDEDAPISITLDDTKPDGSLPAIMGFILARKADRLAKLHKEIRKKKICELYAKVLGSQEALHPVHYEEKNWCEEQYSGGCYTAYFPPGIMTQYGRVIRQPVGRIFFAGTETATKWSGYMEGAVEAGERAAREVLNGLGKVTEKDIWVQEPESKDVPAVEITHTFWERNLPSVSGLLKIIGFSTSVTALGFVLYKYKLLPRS
Protocol: (§1) Both monoamine oxidase A (MAO-A) and B (MAO-B) protein and the reagents for the chromogenic solution of vanillic acid (4-hydroxy-3-methoxylbenzoic acid, 97% purity), 4-aminoantipyrine (reagent grade), horseradish peroxidase and the substrate tyramine hydrochloride (minimum 99% purity) as well as the potassium phosphate buffer, which was prepared using potassium phosphate dibasic trihydrate (≥99% ReagentPlus™) and potassium phosphate monobasic (minimum 98% purity, molecular biology tested), were purchased from Sigma-Aldrich (St. Louis, MO, USA) for the spectrophotometric assay.
(§2) The protocol for continuous spectrophotometric assay (Holt et al., [1997]) was followed in the activity measurements. The assay was performed in 0.2 M potassium phosphate buffer pH 7.6 on 96-well plates (Nunc™ 96F microwell plate without a lid, Nunc A/S, Roskilde, DK) in 200 μl total volume. The chromogenic solution containing 1 mM vanillic acid, 500 μM 4-aminoantipyrine and 8 U/ml horseradish peroxidase in 0.2 M potassium phosphate buffer pH 7.6 was mixed anew for each measurement. 5 mM tyramine solution was used as the substrate. In order to determine the activity of both MAO-B and MAO-A, concentration series as duplicates were prepared. The protein was combined with the chromogenic solution and incubated 30 min at 37°C. The background signal was measured using multilabel reader (Victor^TM X4, 2030 Multilabel Reader, PerkinElmer, Waltham, MA, USA) at A490 before reaching the total 200 μl volume by adding 20 μl of tyramine to final concentration of 0.5 mM on the plate. As a result, the final concentration of the chromogenic solution on the plate was 250 μM vanillic acid, 125 μM 4-aminoantipyrine and 2 U/ml horseradish peroxide. After adding the substrate, the plates were measured 300 times every 15 s using 1 s exposure time. The device was set to 37°C for the duration of the experiment.
(§3) The experiment conditions should produce absorbance change of ~0.35 (Holt et al., [1997]). […] The same wide panel of coumarin derivatives was additionally used to analyze the MAO-A inhibition at 100 μM (Table 1, Supplementary Table S1).
(§4) The measured data was then fitted on a curve using non-linear regression with the equation for log[inhibitor] vs. response. The IC50 values were therefore determined based on the curve fit. The fitted curves are shown on –log scale in Supplementary Figures S1, S2.

recombinant human HSD1 = target: T3, recombinant human HSD1 (Homo sapiens, UniProt P14061); experiment: HSD1 inhibition by HPLC with tritium labeled estrone/estradiol; type: biochemical; details: 1 μM
T3 construct: made in house; host or cells: Sf9 insect cells
T3 sequence (P14061 1-328): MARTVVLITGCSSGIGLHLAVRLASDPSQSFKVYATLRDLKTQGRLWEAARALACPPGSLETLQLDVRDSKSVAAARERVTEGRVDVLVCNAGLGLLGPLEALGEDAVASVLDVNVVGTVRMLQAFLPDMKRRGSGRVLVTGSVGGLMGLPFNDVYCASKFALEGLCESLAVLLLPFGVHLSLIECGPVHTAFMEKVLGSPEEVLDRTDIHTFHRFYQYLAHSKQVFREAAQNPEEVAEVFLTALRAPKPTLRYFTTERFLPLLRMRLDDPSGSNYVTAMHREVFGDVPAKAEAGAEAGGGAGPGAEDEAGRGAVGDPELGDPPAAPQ

human CYP1A2 = target: T4, human CYP1A2 (Homo sapiens, UniProt P05177); experiment: CYP1A2 inhibition, 7-ethoxyresorufin fluorescence assay; type: biochemical
T4 construct: purchased Corning Inc
T4 sequence (P05177 1-516): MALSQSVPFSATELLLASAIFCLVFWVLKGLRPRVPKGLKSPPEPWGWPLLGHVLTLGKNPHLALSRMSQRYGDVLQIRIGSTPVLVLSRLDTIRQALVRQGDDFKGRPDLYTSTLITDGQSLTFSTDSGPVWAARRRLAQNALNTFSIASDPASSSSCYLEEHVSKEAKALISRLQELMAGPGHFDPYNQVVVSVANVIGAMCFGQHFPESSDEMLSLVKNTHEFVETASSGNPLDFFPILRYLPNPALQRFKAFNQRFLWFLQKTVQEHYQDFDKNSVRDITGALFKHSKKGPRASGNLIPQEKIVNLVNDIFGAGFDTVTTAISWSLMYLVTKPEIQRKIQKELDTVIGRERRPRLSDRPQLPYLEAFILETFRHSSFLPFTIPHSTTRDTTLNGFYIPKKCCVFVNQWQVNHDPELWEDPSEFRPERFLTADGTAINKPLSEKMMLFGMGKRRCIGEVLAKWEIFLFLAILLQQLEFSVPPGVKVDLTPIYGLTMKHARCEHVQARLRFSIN
Protocol: Inhibition of CYP1A2 activity was determined with commercial heterologously expressed human CYP1A2 enzyme (Corning Inc., Corning, NY, USA) as described earlier (Korhonen et al., [2005]). The metabolic activity was not in the scope of this particular study. The assay was adapted to the 96-well plate format. In each well, a 150 μL incubation volume contained 100 mM Tris-HCl buffer (pH 7.4), 4.2 mM MgCl2,1 μM 7-ethoxyresorufin, 0.5 pmol of cDNA expressed CYP1A2, […] inhibitor, and a NADPH-generating system. All inhibitors were dissolved in ethanol, and the final concentration of ethanol was 2% in all incubations. The reaction was initiated by adding the NADPH-regenerating system after a 10 min preincubation at 37°C, and after a 20 min incubation, the reaction was terminated by the addition of 110 μL of 80% acetonitrile/20% 0.5 M Tris base. The formed fluorescence was measured with a Victor2 plate counter (Perkin-Elmer Life Sciences Wallac, Turku, Finland) at 570 nm excitation and 616 nm emission.

MAO-B [3] = target: T1, MAO-B; experiment: continuous spectrophotometric MAO-B inhibition assay; type: biochemical; details: for MAO-B inhibition %: 10 µM, 2h
Protocol: as §1, §2, §3, §4

ERα = target: T5, ERα (Homo sapiens, UniProt P03372); experiment: PolarScreen ER Alpha Competitor Assay (fluorescence polarization); type: binding; details: for ER inhibition %: 10 μM
T5 construct: purchased Life Technologies
T5 sequence (P03372 1-595): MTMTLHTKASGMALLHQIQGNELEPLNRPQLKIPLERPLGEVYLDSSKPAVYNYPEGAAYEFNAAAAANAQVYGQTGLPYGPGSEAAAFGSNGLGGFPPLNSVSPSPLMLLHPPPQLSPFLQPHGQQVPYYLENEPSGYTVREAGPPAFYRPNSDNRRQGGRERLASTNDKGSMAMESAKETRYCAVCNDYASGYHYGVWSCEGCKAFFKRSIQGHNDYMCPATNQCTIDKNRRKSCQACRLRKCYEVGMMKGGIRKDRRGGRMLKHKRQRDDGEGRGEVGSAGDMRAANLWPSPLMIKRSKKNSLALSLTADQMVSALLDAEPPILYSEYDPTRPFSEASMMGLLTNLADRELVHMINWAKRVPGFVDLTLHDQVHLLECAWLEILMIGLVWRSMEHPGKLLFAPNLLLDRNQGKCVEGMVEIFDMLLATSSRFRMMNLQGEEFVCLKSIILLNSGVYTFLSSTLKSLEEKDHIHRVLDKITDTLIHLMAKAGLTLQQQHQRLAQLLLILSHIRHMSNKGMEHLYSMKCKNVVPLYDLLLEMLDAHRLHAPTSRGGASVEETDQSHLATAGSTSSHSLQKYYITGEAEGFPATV
Protocol: The pIC50 values for the derivatives (Table 1, Supplementary Table S1) were measured with green PolarScreen™ ER Alpha Competitor Assay (Life Technologies, CA, The United States of America) kit, following the manufacturer protocol as previously described (Niinivehmas et al., [2016]). The final concentration of the compounds ranged from 0.0007 to 10 000 nM in the dilution series which were performed as duplicates. The molecules were combined with 25 nM ERα and 4.5 nM fluormone in the assay buffer and placed on black low volume 384-well assay plate with NBS surface (Corning, NY, The United States of America). After mixing the assay plate, it was incubated for 2 h in RT. The fluorescence polarization was measured using excitation wave length 485 and emission wave length 535 with bandwidths of 25/20 nm on a 2104 EnVision® Multilabel Plate Reader which had EnVision Workstation version 1.7 (PerkinElmer, MA, The United States of America).

| MAO-A inhibition % (MAO-A) [%] | HSD1 inhibition % (recombinant human HSD1) [%] | IC50 (human CYP1A2) [µM] | MAO-B inhibition % (MAO-B [3]) [%] | ER inhibition % (ERα) [%] | SMILES | also measured |
| --- | --- | --- | --- | --- | --- | --- |
| 56.76 | – | – | 22.93 | 0.00 | O=c1oc2c(O)cccc2cc1-c1cccc(O)c1 [derivative 43] | – |
| 22.39 | – | – | 22.52 | 96.18 | O=c1oc2c(O)cccc2cc1-c1ccc(O)cc1 [derivative 44] | ER activity (in words) (ERα): prominent |
| 43.38 | – | – | 21.38 | 0.13 | O=c1oc2cc(O)cc(O)c2cc1-c1ccc(O)cc1 [derivative 45] | – |
| 22.33 | 0.00 | 17 | 15.81 | – | CC(=O)Oc1cccc2cc(-c3ccc(F)cc3)c(=O)oc12 [derivative 47] | – |
| 0.00 | 1.30 | – | 10.23 | 0.66 | O=c1oc2c(Cl)cc(Cl)cc2cc1-c1ccc(F)cc1 [derivative 49] | – |

The next lines start with the compound.

| SMILES | MAO-A inhibition % (MAO-A) [%] | HSD1 inhibition % (recombinant human HSD1) [%] | IC50 (human CYP1A2) [µM] | MAO-B inhibition % (MAO-B [3]) [%] | ER inhibition % (ERα) [%] | also measured |
| --- | --- | --- | --- | --- | --- | --- |
| O=c1oc2ccccc2cc1-c1ccccc1 [CHEMBL510349] | – | – | – | – | – | pIC50 (MAO-B [1]; MAO-B, from literature IC50 ref Viña et al.): 4.93; IC50 (MAO-B [1]; prior 3-phenylcoumarins ref Viña et al., read-out: MAO-B inhibition IC50): 11.8 µM; LiPE (MAO-B [2]): 1.47 |
| Cc1ccc2oc(=O)c(-c3ccc(O)cc3)cc2c1 [CHEMBL577099] | – | – | – | – | – | LiPE (MAO-B [2]): 4.06 |
| COc1ccc(-c2c(O)c3ccccc3oc2=O)cc1Cl [CHEMBL1934675] | – | – | – | – | – | LiPE (MAO-B [2]): 1.85 |
| COc1ccc(-c2cc3ccc(OC)cc3oc2=O)cc1 [derivative 37] | 0.00 | 0.00 | 480 | 39.78 | – | – |
| O=c1oc2cc(O)ccc2cc1-c1cccc(O)c1 [derivative 40] | 0.00 | – | – | 25.74 | 18.58 | ER activity (in words) (ERα): prominent |
| O=c1oc2cc(O)cc(O)c2cc1-c1cccc(O)c1 [derivative 42] | 48.86 | – | – | 23.30 | 0.44 | – |
| O=c1oc2c(CN3CCCCC3)c(O)ccc2cc1-c1ccccc1 [derivative 50] | 0.00 | 1.50 | 65 | 8.16 | – | MAO-B inhibition (in words) (MAO-B [3]): activity is lost |
| COc1ccc2cc(-c3cccc(OCc4ccccc4)c3)c(=O)oc2c1 [derivative 51] | 0.00 | 31.60 | 3 | 6.66 | – | – |
| CC(=O)Oc1ccc2cc(-c3ccccc3)c(=O)oc2c1 [derivative 52] | 0.00 | 0.70 | 80 | 0.00 | – | MAO-B inhibition (in words) (MAO-B [3]): activity is lost |
